According to ChEMBL document CHEMBL3627657, “Design, synthesis, biological evaluation and docking study of 4-isochromanone hybrids bearing N-benzyl pyridinium moiety as dual binding site acetylcholinesterase inhibitors” (Bioorg Med Chem Lett, 2015):
Activity calls are given as the source filed them. No cut-off for these calls is given here.

Legend:
[1] = Selectivity index, ratio of IC50 for equine serum BuChE to IC50 for electric eel AChE
Acetylcholinesterase = Acetylcholinesterase (Electrophorus electricus, UniProt O42275); assay: Inhibition of electric eel AChE using […] as substrate by Ellman's method
Cholinesterase = Cholinesterase (Equus caballus, UniProt P81908)
Description: Inhibition of equine serum BuChE using thiocholine iodide as substrate by Ellman's method

[2] = Lipophilicity, log D of the compound at pH 7.4 by UV-metric/potentiometric method; assay type: physicochemical; conditions: buffer
[3] = Dissociation constant, pKa of the compound by UV-metric/potentiometric method; assay type: physicochemical
[4] = target: Acetylcholinesterase (Electrophorus electricus) (UniProt O42275); assay: Mixed type inhibition of electric eel AChE using […] as substrate by Lineweaver-Burk plot analysis
[5] = Lipophilicity, log P of the compound by UV-metric/potentiometric method; assay type: physicochemical; conditions: octanol/water

Chain of Cholinesterase (P81908 whole entry): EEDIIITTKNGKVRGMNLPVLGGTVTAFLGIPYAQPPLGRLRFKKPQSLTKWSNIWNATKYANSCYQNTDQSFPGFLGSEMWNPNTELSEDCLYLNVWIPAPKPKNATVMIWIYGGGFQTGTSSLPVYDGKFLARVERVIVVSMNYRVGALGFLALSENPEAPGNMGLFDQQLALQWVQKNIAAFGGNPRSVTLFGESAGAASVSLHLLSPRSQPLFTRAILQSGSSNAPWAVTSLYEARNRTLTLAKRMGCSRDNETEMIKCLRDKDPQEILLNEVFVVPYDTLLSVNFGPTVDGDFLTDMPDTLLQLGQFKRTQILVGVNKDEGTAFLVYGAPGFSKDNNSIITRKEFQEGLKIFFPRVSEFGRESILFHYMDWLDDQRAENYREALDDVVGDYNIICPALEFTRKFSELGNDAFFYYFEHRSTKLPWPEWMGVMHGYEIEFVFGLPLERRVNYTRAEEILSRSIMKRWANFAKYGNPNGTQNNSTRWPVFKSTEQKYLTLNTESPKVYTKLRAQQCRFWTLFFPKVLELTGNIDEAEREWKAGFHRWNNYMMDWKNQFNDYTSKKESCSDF
Chain of Acetylcholinesterase (O42275 whole entry): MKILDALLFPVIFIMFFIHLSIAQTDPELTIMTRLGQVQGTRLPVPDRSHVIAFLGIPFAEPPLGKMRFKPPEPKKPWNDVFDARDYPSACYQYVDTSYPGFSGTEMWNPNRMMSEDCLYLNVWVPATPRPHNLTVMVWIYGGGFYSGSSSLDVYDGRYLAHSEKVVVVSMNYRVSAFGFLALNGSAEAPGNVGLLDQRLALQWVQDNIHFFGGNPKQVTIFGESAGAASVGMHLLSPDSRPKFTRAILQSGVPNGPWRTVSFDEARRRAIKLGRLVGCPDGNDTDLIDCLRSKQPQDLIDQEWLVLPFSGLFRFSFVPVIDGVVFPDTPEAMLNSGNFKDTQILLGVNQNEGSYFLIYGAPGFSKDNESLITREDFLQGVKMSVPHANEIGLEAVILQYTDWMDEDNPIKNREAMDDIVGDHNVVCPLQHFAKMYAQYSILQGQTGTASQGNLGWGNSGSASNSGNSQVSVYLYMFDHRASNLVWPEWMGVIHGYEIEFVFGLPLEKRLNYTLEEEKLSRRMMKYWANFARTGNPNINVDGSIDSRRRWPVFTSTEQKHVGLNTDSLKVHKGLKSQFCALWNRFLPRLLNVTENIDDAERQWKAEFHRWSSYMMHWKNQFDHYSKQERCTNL
Chain of Acetylcholinesterase (Electrophorus electricus) (O42275 24-633 limits assumed): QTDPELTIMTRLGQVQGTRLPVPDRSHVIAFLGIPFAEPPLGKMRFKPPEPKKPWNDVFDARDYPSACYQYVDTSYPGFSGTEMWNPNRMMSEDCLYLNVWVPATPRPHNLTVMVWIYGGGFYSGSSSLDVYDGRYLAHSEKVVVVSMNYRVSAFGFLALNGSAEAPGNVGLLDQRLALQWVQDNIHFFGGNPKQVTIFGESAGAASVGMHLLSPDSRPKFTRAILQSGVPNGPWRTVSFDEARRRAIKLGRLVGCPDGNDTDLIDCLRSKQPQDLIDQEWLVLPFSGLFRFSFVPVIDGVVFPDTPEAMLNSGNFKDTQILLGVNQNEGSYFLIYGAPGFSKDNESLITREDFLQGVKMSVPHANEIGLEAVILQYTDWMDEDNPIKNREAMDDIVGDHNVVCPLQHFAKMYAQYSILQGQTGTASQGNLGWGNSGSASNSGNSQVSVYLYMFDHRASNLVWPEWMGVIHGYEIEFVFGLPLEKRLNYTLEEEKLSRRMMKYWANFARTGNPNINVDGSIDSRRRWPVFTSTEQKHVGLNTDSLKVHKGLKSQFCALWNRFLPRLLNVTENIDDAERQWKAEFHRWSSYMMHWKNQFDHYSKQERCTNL

| SMILES | Ratio IC50 [1] | IC50 (Acetylcholinesterase) [nM] | IC50 (Cholinesterase) [nM] | logD [2] | pKa [3] | inhibition [4] | logP [5] |
| --- | --- | --- | --- | --- | --- | --- | --- |
| COc1ccc(C[n+]2ccc(/C=C3\OCc4c(ccc(OC)c4OC)C3=O)cc2)cc1 | 3.6 | 1190 | 4330 |  |  |  |  |
| COc1ccc2c(c1OC)CO/C(=C\c1cc[n+](Cc3ccc(Cl)cc3)cc1)C2=O | 5.5 | 646 | 3560 |  |  |  |  |
| COc1ccc2c(c1OC)CO/C(=C\c1cc[n+](Cc3ccc(F)cc3)cc1)C2=O | 232 | 8.93 | 2070 | 1.45 | 8.79 | Active | 2.84 |
| COc1ccc2c(c1OC)CO/C(=C\c1cc[n+](Cc3cccc([N+](=O)[O-])c3)cc1)C2=O | 64 | 456 | 29200 |  |  |  |  |
| COc1ccc2c(c1OC)CO/C(=C\c1cc[n+](Cc3ccc([N+](=O)[O-])cc3)cc1)C2=O |  | 3550 | > 100000 |  |  |  |  |
| COc1ccc2c(c1OC)CO/C(=C\c1cc[n+](Cc3cccc(F)c3)cc1)C2=O | 359 | 26.3 | 9440 |  |  |  |  |
| COc1cccc(C[n+]2ccc(/C=C3\OCc4c(ccc(OC)c4OC)C3=O)cc2)c1 | 7 | 441 | 3060 |  |  |  |  |
| COc1ccccc1C[n+]1ccc(/C=C2\OCc3c(ccc(OC)c3OC)C2=O)cc1 | 13 | 640 | 8790 |  |  |  |  |
| COc1ccc2c(c1OC)CO/C(=C\c1cc[n+](Cc3cccc(Cl)c3)cc1)C2=O | 142 | 69.7 | 9920 |  |  |  |  |
| COc1ccc2c(c1OC)CO/C(=C\c1cc[n+](Cc3ccccc3)cc1)C2=O | 153 | 44.8 | 6870 | 1.28 | 8.68 |  | 2.53 |
| COc1ccc2c(c1OC)CO/C(=C\c1cc[n+](Cc3ccccc3Cl)cc1)C2=O | 229 | 15.9 | 3640 | 1.96 | 8.62 |  | 3.2 |
| COc1ccc2c(c1OC)CO/C(=C\c1cc[n+](Cc3ccccc3[N+](=O)[O-])cc1)C2=O | 41.6 | 503 | 20900 |  |  |  |  |
| COc1ccc2c(c1OC)CO/C(=C\c1cc[n+](Cc3ccccc3F)cc1)C2=O | 209 | 21.1 | 4410 |  |  |  |  |
